According to ChEMBL document CHEMBL1201862, “PubChem BioAssay data set” (2004):
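Where inhibition never reached the appropriate level, the endpoint shown equals the highest concentration tested. Otherwise, values were interpolated linearly from a five-concentration, 48-hour dose response in 96-well plates. At the GI50, growth is halved.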 Active and inactive are the calls of the source. Cut-off read from the data, not from the text of the source: active = GI50 up to about 1.1 µM and inactive = higher.

Columns and labels:
Experiment in all cases: inhibition of tumour cell growth, NCI panel, 48 h
[1] = tested on: SW-620
[2] = tested on: DU-145
[3] = tested on: IGROV-1
[4] = tested on: EKVX
[5] = tested on: SNB-75
[6] = tested on: T47D
[7] = tested on: OVCAR-5
[8] = tested on: M14
[9] = tested on: A549
[10] = tested on: SF-295
[11] = tested on: SK-MEL-28
[12] = tested on: K562
[13] = tested on: NCI-H522
[14] = tested on: TK-10
[15] = tested on: COLO 205
[16] = tested on: CAKI-1
[17] = tested on: HCT-15
[18] = tested on: OVCAR-3
[19] = tested on: NCI-H226
[20] = tested on: SN12C
[21] = tested on: HOP-62
[22] = tested on: KM12
[23] = tested on: SF-539
[24] = tested on: HCT-116
[25] = tested on: MDA-MB-435
[26] = tested on: OVCAR-8
[27] = tested on: CCRF-CEM
[28] = tested on: Hs-578T
[29] = tested on: 786-0
[30] = tested on: SK-OV-3
[31] = tested on: U-251
[32] = tested on: A498
[33] = tested on: BT-549
[34] = tested on: MOLT-4
[35] = tested on: NCI-H23
[36] = tested on: HOP-92
[37] = tested on: SK-MEL-2
[38] = tested on: Malme-3M
[39] = tested on: MDA-MB-231
[40] = tested on: ACHN
[41] = tested on: SNB-19
[42] = tested on: LOX IMVI
[43] = tested on: UO-31
[44] = tested on: HCC 2998
[45] = tested on: UACC-62
[46] = tested on: OVCAR-4
[47] = tested on: MCF7
[48] = tested on: NCI-H460
[49] = tested on: HT-29
[50] = tested on: RXF 393
[51] = tested on: SR
[52] = tested on: RPMI-8226
[53] = tested on: UACC-257
[54] = tested on: SF-268
[55] = tested on: MDA-N
[56] = tested on: NCI/ADR-RES
[57] = tested on: HL-60
[58] = tested on: PC-3
[59] = tested on: SK-MEL-5

O=C1/C(=C/c2ccc(O)cc2)CCc2ccc([N+](=O)[O-])cc21
GI50 [1]: > 100 µM (inactive)
GI50 [2]: 55.3 µM (inactive)
GI50 [3]: 61.2 µM (inactive)
GI50 [4]: > 89.5 µM (inactive)
GI50 [5]: 53.2 µM (inactive)
GI50 [6]: 68.7 µM (inactive)
GI50 [7]: > 51.5 µM (inactive)
GI50 [8]: > 100 µM (inactive)
GI50 [9]: 45 µM (inactive)
GI50 [10]: 63.1 µM (inactive)
GI50 [11]: > 100 µM (inactive)
GI50 [12]: > 100 µM (inactive)
GI50 [13]: 2.65 µM (inactive)
GI50 [14]: 45.2 µM (inactive)
GI50 [15]: > 100 µM (inactive)
GI50 [16]: > 82.6 µM (inactive)
GI50 [17]: > 100 µM
GI50 [18]: > 78.2 µM (inactive)
GI50 [19]: 28.7 µM (inactive)
GI50 [20]: > 100 µM (inactive)
GI50 [21]: 73.5 µM (inactive)
GI50 [22]: > 76 µM (inactive)
GI50 [23]: > 90.6 µM (inactive)
GI50 [24]: 75.5 µM (inactive)
GI50 [25]: > 100 µM (inactive)
GI50 [26]: > 100 µM (inactive)
GI50 [27]: 0.419 µM (active)
GI50 [28]: 35.9 µM (inactive)
GI50 [29]: > 80.5 µM (inactive)
GI50 [30]: > 84.7 µM (inactive)
GI50 [31]: 60.4 µM (inactive)
GI50 [32]: 34.6 µM (inactive)
GI50 [33]: 31.3 µM (inactive)
GI50 [34]: 3.63 µM (inactive)
GI50 [35]: 36.1 µM (inactive)
GI50 [36]: 29.1 µM (inactive)
GI50 [37]: 66.5 µM (inactive)
GI50 [38]: 98.2 µM (inactive)
GI50 [39]: > 100 µM (inactive)
GI50 [40]: > 81.3 µM (inactive)
GI50 [41]: 39.1 µM (inactive)
GI50 [42]: > 100 µM (inactive)
GI50 [43]: 23 µM (inactive)
GI50 [44]: > 100 µM (inactive)
GI50 [45]: > 74.3 µM (inactive)
GI50 [46]: > 90.6 µM (inactive)
GI50 [47]: > 33.3 µM (inactive)
GI50 [48]: 45.9 µM (inactive)
GI50 [49]: > 100 µM (inactive)
GI50 [50]: 33.3 µM (inactive)
GI50 [51]: 1.63 µM (inactive)
GI50 [52]: 2.07 µM (inactive)
GI50 [53]: 97.7 µM (inactive)
GI50 [54]: > 61.7 µM (inactive)
GI50 [55]: > 100 µM (inactive)
GI50 [56]: 73.5 µM (inactive)
GI50 [57]: 5.5 µM (inactive)
GI50 [58]: > 100 µM (inactive)
GI50 [59]: > 81.8 µM (inactive)

COc1ccc(NC(=O)CC(=O)n2nc(C)c(/N=N/c3ccc(C)c(C)c3)c2C)cc1
GI50 [1]: > 100 µM (inactive)
GI50 [2]: > 100 µM (inactive)
GI50 [3]: 29.4 µM (inactive)
GI50 [4]: 15.1 µM (inactive)
GI50 [5]: 39.2 µM (inactive)
GI50 [6]: 64.7 µM (inactive)
GI50 [7]: > 100 µM (inactive)
GI50 [8]: > 100 µM (inactive)
GI50 [9]: > 100 µM (inactive)
GI50 [10]: 54.7 µM (inactive)
GI50 [11]: > 100 µM (inactive)
GI50 [13]: > 100 µM (inactive)
GI50 [14]: 55.1 µM (inactive)
GI50 [15]: > 100 µM (inactive)
GI50 [16]: > 100 µM (inactive)
GI50 [18]: > 100 µM (inactive)
GI50 [19]: 51.3 µM (inactive)
GI50 [20]: > 100 µM (inactive)
GI50 [21]: 22.9 µM (inactive)
GI50 [22]: > 100 µM (inactive)
GI50 [23]: 26.5 µM (inactive)
GI50 [24]: > 100 µM (inactive)
GI50 [25]: > 100 µM (inactive)
GI50 [26]: 29.7 µM (inactive)
GI50 [27]: > 100 µM (inactive)
GI50 [28]: 25.2 µM (inactive)
GI50 [29]: 41.6 µM (inactive)
GI50 [30]: 10.8 µM (inactive)
GI50 [31]: 23 µM (inactive)
GI50 [32]: 63.8 µM (inactive)
GI50 [33]: > 100 µM (inactive)
GI50 [34]: 78.3 µM (inactive)
GI50 [35]: 71.4 µM (inactive)
GI50 [36]: 16 µM (inactive)
GI50 [37]: > 100 µM (inactive)
GI50 [38]: > 100 µM (inactive)
GI50 [39]: > 100 µM (inactive)
GI50 [40]: 82.6 µM (inactive)
GI50 [41]: 58.3 µM (inactive)
GI50 [42]: 50.5 µM (inactive)
GI50 [43]: 24.5 µM (inactive)
GI50 [44]: > 100 µM (inactive)
GI50 [45]: > 100 µM (inactive)
GI50 [46]: > 100 µM (inactive)
GI50 [47]: > 100 µM (inactive)
GI50 [48]: > 100 µM (inactive)
GI50 [49]: > 100 µM (inactive)
GI50 [50]: 32.4 µM (inactive)
GI50 [51]: 43.3 µM (inactive)
GI50 [52]: > 100 µM (inactive)
GI50 [53]: > 10 µM (inactive)
GI50 [54]: 33.8 µM (inactive)
GI50 [55]: > 100 µM (inactive)
GI50 [56]: > 100 µM (inactive)
GI50 [57]: 48.3 µM (inactive)
GI50 [58]: > 100 µM (inactive)
GI50 [59]: > 100 µM (inactive)
